Measurements taken from patent publication US9301529B2, “Polysubstituted pyridyl pyrazolecarboxamide and preparation method and use thereof” (ZHAOQING ZHENGE BIOLOGICAL TECHNOLOGY CO., LTD, priority 2014, dated 2016).

Assays:
Ostrinia furnacalis = test: Determination of activity against Ostrinia furnacalis, leaf dipping method; format: in vivo; conditions: for insecticidal activity (mortality): leaf dipping, Brassica oleracea leaf, 72 hours
Description: Determination of Activity Against Ostrinia furnacalis
Leaf dipping method was adopted, a leaf of Brassica oleracea was clamped by a tweezer, and dipped in insecticide solution having a certain concentration for 3 to 5 seconds, the excessive solution was threw off, one leaf at each time, and three leaves for each sample. The leaves were placed onto a treatment paper according to the sequence of sample marking and air-dried naturally, then put into a marked straight tube of 10 cm length, and 30 Ostrinia furnacalis larvae being […] were place in, the tube opening was covered by a gauze, and placed in a standard treatment chamber, the result was checked and the mortality was calculated at 72 hours.
(§1) Some of the compounds in Example 1 were used to conduct the test, and a control compound was selected to conduct an indoor insecticidal activity data (%, concentration unit: ppm) determination test under the same condition, the results of the test was shown in Table 2.

Helicoverpa armigera = test: Determination of activity against Helicoverpa armigera, leaf dipping method (IRAC); format: in vivo; conditions: for insecticidal activity (mortality): leaf dipping, Brassica oleracea leaf, 72 hour
Description: Determination of Activity Against Helicoverpa armigera
Leaf dipping method (proposed by Insecticide Resistance Action Committee, IRAC) was adopted: a leaf of Brassica oleracea was clamped by a tweezer and dipped into an insecticide solution having a certain concentration to be tested for 3 to 5 seconds, the excessive solution was threw off, one leaf at each time, three leaves for each sample. The leaves were placed onto a treatment paper according to sequence of sample marking and air-dried naturally, then put into a marked straight tube of 10 cm length, […] in, the tube opening was covered by a gauze, and placed into a standard treatment chamber, the result was checked and the mortality was calculated at 72 hour.
as §1

[1] = Ostrinia furnacalis, in Brassica oleracea, foliar, 72 h, read-out: insecticidal activity (mortality)
[2] = Helicoverpa armigera, in Brassica oleracea, foliar, 72 h, read-out: insecticidal activity (mortality)

Structure (SMILES): CC(C)(C)NC(=O)c1cc(Cl)cc(Cl)c1NC(=O)c1cc(Br)nn1-c1ncccc1Cl [Compound I-24, 1-(3-chloropyridine-2-yl)-3-bromo-N-(2,4-dichloro-6-tert-butylaminocarbonyl)phenyl-1H-pyrazole-5-formamide]
- insecticidal activity (mortality) (Ostrinia furnacalis; 0.031 ppm): 100%
- insecticidal activity (mortality) (Ostrinia furnacalis; 0.0625 ppm): 100%
- insecticidal activity (mortality) (Ostrinia furnacalis; 0.125 ppm): 100%
- insecticidal activity (mortality) (Ostrinia furnacalis; 0.25 ppm): 100%
- insecticidal activity (mortality) (Ostrinia furnacalis; 0.5 ppm): 100%
- insecticidal activity (mortality) (Helicoverpa armigera; 0.016 ppm): 60%
- insecticidal activity (mortality) (Helicoverpa armigera; 0.031 ppm): 80%
- insecticidal activity (mortality) (Helicoverpa armigera; 0.0625 ppm): 100%
- insecticidal activity (mortality) (Helicoverpa armigera; 0.125 ppm): 100%
- insecticidal activity (mortality) (Helicoverpa armigera; 0.25 ppm): 100%
- insecticidal activity (mortality) (Helicoverpa armigera; 0.5 ppm): 100%

Structure (SMILES): CNC(=O)c1cc(Cl)cc(C)c1NC(=O)c1cc(Br)nn1-c1ncccc1Cl [KC]
- mortality at 0.016 ppm (Ostrinia furnacalis; [1]): 0%
- mortality at 0.031 ppm (Ostrinia furnacalis; [1]): 30%
- mortality at 0.0625 ppm (Ostrinia furnacalis; [1]): 55%
- mortality at 0.125 ppm (Ostrinia furnacalis; [1]): 75%
- mortality at 0.25 ppm (Ostrinia furnacalis; [1]): 100%
- mortality at 0.5 ppm (Ostrinia furnacalis; [1]): 100%
- mortality at 0.016 ppm (Helicoverpa armigera; [2]): 0%
- mortality at 0.031 ppm (Helicoverpa armigera; [2]): 0%
- mortality at 0.0625 ppm (Helicoverpa armigera; [2]): 30%
- mortality at 0.125 ppm (Helicoverpa armigera; [2]): 55%
- mortality at 0.25 ppm (Helicoverpa armigera; [2]): 70%
- mortality at 0.5 ppm (Helicoverpa armigera; [2]): 85%
